In ChEMBL document CHEMBL1201862, “PubChem BioAssay data set” (2004):
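Where inhibition never reached the appropriate level, the endpoint shown equals the highest concentration tested. Otherwise, values were interpolated linearly from a five-concentration, 48-hour dose response in 96-well plates. At the GI50, growth is halved.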 Active and inactive are the calls of the source. Rule as the data show it: active = GI50 up to about 1.1 µM and inactive = higher.

Columns and labels:
Test in all cases: growth of human tumour cells (NCI), 48 h
786-0 = system: 786-0
A549 = system: A549
ACHN = system: ACHN
CAKI-1 = system: CAKI-1
CCRF-CEM = system: CCRF-CEM
COLO 205 = system: COLO 205
DLD-1 = system: DLD-1
DMS-114 = system: DMS-114
DMS-273 = system: DMS-273
EKVX = system: EKVX
HCC 2998 = system: HCC 2998
HCT-116 = system: HCT-116
HCT-15 = system: HCT-15
HL-60 = system: HL-60
HOP-18 = system: HOP-18
HOP-62 = system: HOP-62
HOP-92 = system: HOP-92
HT-29 = system: HT-29
IGROV-1 = system: IGROV-1
K562 = system: K562
KM-20L2 = system: KM-20L2
KM12 = system: KM12
LOX IMVI = system: LOX IMVI
LXFL 529 = system: LXFL 529
M14 = system: M14
M19-MEL = system: M19-MEL
MOLT-4 = system: MOLT-4
Malme-3M = system: Malme-3M
NCI-H226 = system: NCI-H226
NCI-H23 = system: NCI-H23
NCI-H460 = system: NCI-H460
NCI-H522 = system: NCI-H522
OVCAR-3 = system: OVCAR-3
OVCAR-4 = system: OVCAR-4
OVCAR-5 = system: OVCAR-5
RPMI-8226 = system: RPMI-8226
RXF 393 = system: RXF 393
SF-268 = system: SF-268
SF-295 = system: SF-295
SF-539 = system: SF-539
SK-MEL-28 = system: SK-MEL-28
SK-MEL-2 = system: SK-MEL-2
SK-MEL-5 = system: SK-MEL-5
SK-OV-3 = system: SK-OV-3
SN12C = system: SN12C
SNB-19 = system: SNB-19
SNB-75 = system: SNB-75
SNB-78 = system: SNB-78
SR = system: SR
SW-620 = system: SW-620
TK-10 = system: TK-10
U-251 = system: U-251
UACC-257 = system: UACC-257
UACC-62 = system: UACC-62
UO-31 = system: UO-31
XF498 = system: XF498
A498 = system: A498
OVCAR-8 = system: OVCAR-8

SMILES: CCN1C(=O)C(N=[N+]=[N-])(c2ccccc2)C(=O)c2ccccc21 (stereo not drawn)
- GI50 (786-0): > 100 µM (inactive)
- GI50 (A549): 55.8 µM (inactive)
- GI50 (ACHN): > 100 µM (inactive)
- GI50 (CAKI-1): > 100 µM (inactive)
- GI50 (CCRF-CEM): 55.1 µM (inactive)
- GI50 (COLO 205): > 100 µM (inactive)
- GI50 (DLD-1): > 100 µM (inactive)
- GI50 (DMS-114): 41.7 µM (inactive)
- GI50 (DMS-273): > 100 µM (inactive)
- GI50 (EKVX): 32.9 µM (inactive)
- GI50 (HCC 2998): > 100 µM (inactive)
- GI50 (HCT-116): 61.8 µM (inactive)
- GI50 (HCT-15): 59.2 µM
- GI50 (HL-60): 21.6 µM (inactive)
- GI50 (HOP-18): > 100 µM (inactive)
- GI50 (HOP-62): > 100 µM (inactive)
- GI50 (HOP-92): 31.4 µM (inactive)
- GI50 (HT-29): > 100 µM (inactive)
- GI50 (IGROV-1): > 100 µM (inactive)
- GI50 (K562): 39 µM (inactive)
- GI50 (KM-20L2): > 100 µM (inactive)
- GI50 (KM12): > 100 µM (inactive)
- GI50 (LOX IMVI): > 100 µM (inactive)
- GI50 (LXFL 529): 38.9 µM (inactive)
- GI50 (M14): 41.9 µM (inactive)
- GI50 (M19-MEL): 43.1 µM (inactive)
- GI50 (MOLT-4): 43.1 µM (inactive)
- GI50 (Malme-3M): 67 µM (inactive)
- GI50 (NCI-H226): 46.7 µM (inactive)
- GI50 (NCI-H23): 57.1 µM (inactive)
- GI50 (NCI-H460): 94.8 µM (inactive)
- GI50 (NCI-H522): > 100 µM (inactive)
- GI50 (OVCAR-3): 56.8 µM (inactive)
- GI50 (OVCAR-4): 59 µM (inactive)
- GI50 (OVCAR-5): > 100 µM (inactive)
- GI50 (RPMI-8226): 35.6 µM (inactive)
- GI50 (RXF 393): 99.1 µM (inactive)
- GI50 (SF-268): 83.2 µM (inactive)
- GI50 (SF-295): 60.3 µM (inactive)
- GI50 (SF-539): > 100 µM (inactive)
- GI50 (SK-MEL-28): > 100 µM (inactive)
- GI50 (SK-MEL-2): > 100 µM (inactive)
- GI50 (SK-MEL-5): 56.5 µM (inactive)
- GI50 (SK-OV-3): > 100 µM (inactive)
- GI50 (SN12C): > 100 µM (inactive)
- GI50 (SNB-19): > 100 µM (inactive)
- GI50 (SNB-75): 83 µM (inactive)
- GI50 (SNB-78): 98.2 µM (inactive)
- GI50 (SR): 36.3 µM (inactive)
- GI50 (SW-620): > 100 µM (inactive)
- GI50 (TK-10): > 100 µM (inactive)
- GI50 (U-251): > 100 µM (inactive)
- GI50 (UACC-257): 46.6 µM (inactive)
- GI50 (UACC-62): 62.8 µM (inactive)
- GI50 (UO-31): 43.7 µM (inactive)
- GI50 (XF498): 0.946 µM (active)

SMILES: Cc1cc(Cl)ccc1NC(=O)C(=O)C(C(=O)c1ccccc1)C1OC(=O)c2ccccc21 (stereo not drawn)
- GI50 (786-0): > 100 µM (inactive)
- GI50 (A498): > 100 µM (inactive)
- GI50 (A549): > 100 µM (inactive)
- GI50 (ACHN): > 100 µM (inactive)
- GI50 (CAKI-1): > 100 µM (inactive)
- GI50 (CCRF-CEM): > 100 µM (inactive)
- GI50 (COLO 205): > 100 µM (inactive)
- GI50 (DLD-1): > 100 µM (inactive)
- GI50 (DMS-114): > 100 µM (inactive)
- GI50 (DMS-273): > 100 µM (inactive)
- GI50 (EKVX): > 100 µM (inactive)
- GI50 (HCC 2998): > 100 µM (inactive)
- GI50 (HCT-116): > 100 µM (inactive)
- GI50 (HCT-15): > 100 µM
- GI50 (HL-60): > 100 µM (inactive)
- GI50 (HOP-18): > 100 µM (inactive)
- GI50 (HOP-62): > 100 µM (inactive)
- GI50 (HOP-92): > 100 µM (inactive)
- GI50 (HT-29): > 100 µM (inactive)
- GI50 (IGROV-1): > 100 µM (inactive)
- GI50 (K562): > 100 µM (inactive)
- GI50 (KM-20L2): > 100 µM (inactive)
- GI50 (KM12): > 100 µM (inactive)
- GI50 (LOX IMVI): > 100 µM (inactive)
- GI50 (LXFL 529): > 100 µM (inactive)
- GI50 (M14): > 100 µM (inactive)
- GI50 (M19-MEL): > 100 µM (inactive)
- GI50 (MOLT-4): > 100 µM (inactive)
- GI50 (Malme-3M): > 100 µM (inactive)
- GI50 (NCI-H226): > 100 µM (inactive)
- GI50 (NCI-H23): > 100 µM (inactive)
- GI50 (NCI-H460): > 100 µM (inactive)
- GI50 (NCI-H522): > 100 µM (inactive)
- GI50 (OVCAR-4): > 100 µM (inactive)
- GI50 (OVCAR-5): > 100 µM (inactive)
- GI50 (OVCAR-8): > 100 µM (inactive)
- GI50 (RPMI-8226): > 100 µM (inactive)
- GI50 (RXF 393): > 100 µM (inactive)
- GI50 (SF-268): > 100 µM (inactive)
- GI50 (SF-295): > 100 µM (inactive)
- GI50 (SF-539): > 100 µM (inactive)
- GI50 (SK-MEL-28): > 100 µM (inactive)
- GI50 (SK-MEL-2): > 100 µM (inactive)
- GI50 (SK-MEL-5): > 100 µM (inactive)
- GI50 (SK-OV-3): > 100 µM (inactive)
- GI50 (SN12C): > 100 µM (inactive)
- GI50 (SNB-19): > 100 µM (inactive)
- GI50 (SNB-75): > 100 µM (inactive)
- GI50 (SNB-78): > 100 µM (inactive)
- GI50 (SR): > 100 µM (inactive)
- GI50 (SW-620): > 100 µM (inactive)
- GI50 (TK-10): > 100 µM (inactive)
- GI50 (U-251): > 100 µM (inactive)
- GI50 (UACC-257): > 100 µM (inactive)
- GI50 (UACC-62): > 100 µM (inactive)
- GI50 (UO-31): > 100 µM (inactive)
- GI50 (XF498): > 100 µM (inactive)
